Experiments:
[1] = system: voltage gated Na+ channel in MAT-LyLu rat prostatic cancer cell line; test: current recordings of VGSC functional expression in MAT-LyLu cells after 24 h incubation; type: cell-based
Procedure: FIG. 9. (A) Current recordings from the MAT-LyLu rat prostatic cancer cell line elicited by depolarising the membrane from a holding potential of −100 mV to 0 mV following 24 h incubation in 0% FBS, 100 ng/ml EGF and 1 μM AG1478. […] (B) Histograms showing mean peak Na^+ current density ± standard error following 24 h incubation in 0% FBS, 100 ng/ml EGF, 1 μM AG1478 and EGF receptor antibody (1 μg/ml). Statistical significance is indicated as **=p<0.01 and ***=p<0.001, respectively.
Epidermal growth factor (EGF) upregulates VGSC functional expression. […] This effect is blocked by co-application of EGF receptor kinase inhibitor (AG1478; Calbiochem, San Diego, Calif., USA). Application of EGF receptor antibody (Oncogene, Cambridge, Mass., USA) also reduces the basal VGSC current implying that the phenomenon occurs endogenously.

MAT-LyLu and PC-3 cells = conditions: cited from earlier work
MAT-LyLu cells = conditions: cited from earlier work
[2] = system: PN1 expression in PC12 cells; conditions: cited from earlier work

COc1cc2ncnc(Nc3cccc(Cl)c3)c2cc1OC [AG1478]
effect on EGF potentiation of functional VGSC expression ([1]; co-application with EGF, 1 μM AG1478, 24 h): blocked

NC1=N[C@H](O)[C@H]2[C@H]3O[C@]4(O)O[C@@H]([C@@H](O)[C@@]2(N1)[C@@H]4O)[C@]3(O)CO [TTX, tetrodotoxin]
cells' invasion in vitro (MAT-LyLu and PC-3 cells): significantly reduced
reduction of the cells' invasive potential (MAT-LyLu and PC-3 cells): ~30%
effect on cell morphology (MAT-LyLu cells): retract their processes and become compact

Epidermal growth factor [EGF]
VGSC functional expression (peak Na+ current density) ([1]; 24 h incubation, 100 ng/ml EGF): upregulates

nerve growth factor [NGF]
PN1 expression [2]: upregulates

Reference: patent publication US7759078B2, “Diagnosis and treatment of cancer” (priority 2003, dated 2010)
